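Grown in 96-well plates, cells were treated for 48 hours with each compound at five concentrations. Insufficient inhibition: endpoint recorded as highest concentration tested. TGI marks complete inhibition of growth.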
Columns and labels:
Test in all cases: inhibition of tumour cell growth, NCI panel, 48 h
HCT-15 colon = test system: HCT-15 colon
HL-60(TB) leukemia = test system: HL-60(TB) leukemia
A498 renal = test system: A498 renal
EKVX NSCLC = test system: EKVX NSCLC
UO-31 renal = test system: UO-31 renal
UACC-62 melanoma = test system: UACC-62 melanoma
NCI-H226 lung = test system: NCI-H226 lung
LOX IMVI melanoma = test system: LOX IMVI melanoma
SF-539 CNS = test system: SF-539 CNS
MALME-3M melanoma = test system: MALME-3M melanoma
HOP-62 NSCLC = test system: HOP-62 NSCLC
T-47D breast = test system: T-47D breast
HCC-2998 colon = test system: HCC-2998 colon
SNB-75 CNS = test system: SNB-75 CNS
RXF 393 renal = test system: RXF 393 renal
A549 NSCLC = test system: A549 NSCLC
HT29 colon = test system: HT29 colon
MOLT-4 leukemia = test system: MOLT-4 leukemia
CCRF-CEM leukemia = test system: CCRF-CEM leukemia
SN12C renal = test system: SN12C renal
U251 CNS = test system: U251 CNS
786-0 renal = test system: 786-0 renal
SF-295 CNS = test system: SF-295 CNS
COLO 205 colon = test system: COLO 205 colon
SK-MEL-5 melanoma = test system: SK-MEL-5 melanoma
ACHN renal = test system: ACHN renal
NCI-H460 lung = test system: NCI-H460 lung
TK-10 renal = test system: TK-10 renal
OVCAR-8 ovarian = test system: OVCAR-8 ovarian
MDA-MB-231 breast = test system: MDA-MB-231 breast
SNB-19 CNS = test system: SNB-19 CNS
SR leukemia = test system: SR leukemia
CAKI-1 renal = test system: CAKI-1 renal
K-562 leukemia = test system: K-562 leukemia
M14 melanoma = test system: M14 melanoma
MDA-N = test system: MDA-N
NCI/ADR-RES ovarian = test system: NCI/ADR-RES ovarian
NCI-H23 lung = test system: NCI-H23 lung
SK-MEL-2 melanoma = test system: SK-MEL-2 melanoma
SK-OV-3 ovarian = test system: SK-OV-3 ovarian
OVCAR-3 ovarian = test system: OVCAR-3 ovarian
MDA-MB-435 = test system: MDA-MB-435
SK-MEL-28 melanoma = test system: SK-MEL-28 melanoma
HS 578T breast = test system: HS 578T breast
OVCAR-5 ovarian = test system: OVCAR-5 ovarian
MCF7 breast = test system: MCF7 breast
HOP-92 NSCLC = test system: HOP-92 NSCLC
SW-620 colon = test system: SW-620 colon
RPMI-8226 leukemia = test system: RPMI-8226 leukemia
SF-268 CNS = test system: SF-268 CNS
DU-145 prostate = test system: DU-145 prostate
BT-549 breast = test system: BT-549 breast
UACC-257 melanoma = test system: UACC-257 melanoma
PC-3 prostate = test system: PC-3 prostate
KM12 colon = test system: KM12 colon
NCI-H522 lung = test system: NCI-H522 lung
OVCAR-4 ovarian = test system: OVCAR-4 ovarian
HCT-116 colon = test system: HCT-116 colon
IGROV1 ovarian = test system: IGROV1 ovarian

Measured: TGI

c1ccc2c(c1)CN1CCCC1CN2 (stereo not drawn)
> 100 µM: HCT-15 colon | HL-60(TB) leukemia | A498 renal | EKVX NSCLC | UO-31 renal | UACC-62 melanoma | NCI-H226 lung | LOX IMVI melanoma | SF-539 CNS | MALME-3M melanoma | HOP-62 NSCLC | T-47D breast | HCC-2998 colon | SNB-75 CNS | RXF 393 renal | A549 NSCLC | HT29 colon | MOLT-4 leukemia | CCRF-CEM leukemia | SN12C renal | U251 CNS | 786-0 renal | SF-295 CNS | COLO 205 colon | SK-MEL-5 melanoma | ACHN renal | NCI-H460 lung | TK-10 renal | OVCAR-8 ovarian | MDA-MB-231 breast | SNB-19 CNS | SR leukemia | CAKI-1 renal | K-562 leukemia | M14 melanoma | MDA-N | NCI/ADR-RES ovarian | NCI-H23 lung | SK-MEL-2 melanoma | SK-OV-3 ovarian | OVCAR-3 ovarian | MDA-MB-435 | SK-MEL-28 melanoma | HS 578T breast | OVCAR-5 ovarian | MCF7 breast | HOP-92 NSCLC | SW-620 colon | RPMI-8226 leukemia | SF-268 CNS | DU-145 prostate | BT-549 breast | UACC-257 melanoma | PC-3 prostate | KM12 colon | NCI-H522 lung | OVCAR-4 ovarian | HCT-116 colon | IGROV1 ovarian

CCOC(=O)NN(C(=O)OCC)C(=C(c1ccccc1)N1CCOCC1)N(NC(=O)OCC)C(=O)OCC
> 100 µM: HCT-15 colon | HL-60(TB) leukemia | A498 renal | EKVX NSCLC | UO-31 renal | UACC-62 melanoma | NCI-H226 lung | LOX IMVI melanoma | SF-539 CNS | MALME-3M melanoma | HOP-62 NSCLC | T-47D breast | HCC-2998 colon | SNB-75 CNS | RXF 393 renal | A549 NSCLC | HT29 colon | MOLT-4 leukemia | CCRF-CEM leukemia | SN12C renal | U251 CNS | 786-0 renal | SF-295 CNS | COLO 205 colon | SK-MEL-5 melanoma | ACHN renal | NCI-H460 lung | TK-10 renal | OVCAR-8 ovarian | MDA-MB-231 breast | SNB-19 CNS | SR leukemia | CAKI-1 renal | K-562 leukemia | M14 melanoma | MDA-N | NCI/ADR-RES ovarian | NCI-H23 lung | SK-MEL-2 melanoma | SK-OV-3 ovarian | OVCAR-3 ovarian | MDA-MB-435 | SK-MEL-28 melanoma | HS 578T breast | OVCAR-5 ovarian | MCF7 breast | HOP-92 NSCLC | SW-620 colon | RPMI-8226 leukemia | SF-268 CNS | DU-145 prostate | BT-549 breast | UACC-257 melanoma | PC-3 prostate | KM12 colon | NCI-H522 lung | OVCAR-4 ovarian | HCT-116 colon | IGROV1 ovarian

— PubChem BioAssay (NCI)
